Where two headings read alike, the source gives them in different places.
How the values were obtained:
[1] = tested on: human neonatal dermal fibroblast; test: UV-A irradiation-induced cell damage, amino acid added after irradiation (Alamar Blue); assay type: cell-based; details: for fluorescent intensity of Alamar Blue: without irradiation 764, negative control 348; for percentage of the viable cell: UV-A 8 J/cm^2, FIG. 3
Experimental: (§1) The cell employed was a commercially available human neonatal dermal fibroblast (Cryo NHDF-Neo, Sanko-Junyaku Co., Ltd.). This cell was inoculated at 2×10^5 cells/mL to a commercially available culture dish of 35 mm in diameter (BD FALCON 353001, Becton Dickinson Japan), where it was cultured in a commercially available cell culture medium (D-MEM (1 g/L glucose, Wako Pure Chemical Industries, Ltd.) supplemented with 10% fetal bovine serum (hereinafter, referred to as “normal medium”). The cell described above may be cultured in the normal medium described above supplemented with an antibiotic (15240-062, Gibco) at 1%. This cell was cultured for about 24 hours in a 5% CO2 and saturated water vapor atmosphere at 37° C. (degrees Celsius).
(§2) Thereafter, the culture medium for culturing the cell described above was switched to 1 mL of a BSO medium supplemented with a glutathione biosynthesis inhibitor BSO (L-buthionine-(S,R)-sulfoximine, Wako Pure Chemical Industries, Ltd.) at 1×10^−3%, where the culture was conducted for about 24 hours in a 5% CO2 and saturated water vapor atmosphere at 37° C. (degrees Celsius). The BSO medium described above was prepared by a 200-fold dilution of a stock solution containing 0.2% BSO dissolved in ethyl alcohol with the normal medium described above.
(§3) […] was dissolved in a distilled water at 2×10^−3%, and the resultant solution was subjected to a 200-fold dilution (final concentration: 1×10^−5%) with a phosphate buffered saline PBS (+) containing calcium ion and magnesium ion to obtain a medium (hereinafter, referred to as “UV irradiation medium”), which was warmed preliminarily to 37° C. before use.
(§4) Before UV-A irradiation, the culture medium was replaced with 1 mL of the UV irradiation medium described above. […] The UV dose was measured using UV RADIOMETER UVR-3036/S (Topcon Corporation).
After UV-A irradiation at 8 J/cm^2, the medium was returned to the normal medium described above, and the culture was conducted in a 5% CO2 and saturated water vapor atmosphere at 37° C. (degrees Celsius) for 40 hours. For determining the effect of adding methionine after UV irradiation (hereinafter, referred to as “post-irradiation addition of methionine”), this 40-hour cultured medium was added with 0.001 to 100 μM (micro-molar) L- or D-methionine. The ultraviolet irradiation after switching into a medium added with 0.1 μM (micro-molar) D-proline was employed as a positive control, while the ultraviolet irradiation to the medium still being free of such an added amino acid was employed as a negative control.
(§5) Thereafter, the culture medium was supplemented with Alamar Blue (trade mark, Biosource, Biosource International Inc. and Invitrogen) at a final concentration of […], and its supernatant was determined for the fluorescent intensity three hours later with an excitation wavelength of 544 nm and a fluorescent wavelength of 590 nm as described by Ahmed S. A. et al. J. Immunol. Method. 170, 211-224 (1994)) and in accordance with the manufacture's instruction. The percentage of the viable cell was obtained as a percentage of a quotient calculated by dividing the fluorescent intensity of Alamar Blue under each experimental condition by the fluorescent intensity in the negative control group containing no added amino acid.
(§6) the cell culture, the addition of amino acids before the UV irradiation, the UV irradiation, the addition of amino acids after the UV irradiation and the cell damage measurement were conducted similarly to Example 1. The ultraviolet light (UV-A) was irradiated at 7.5 or 9 J/cm^2.

[2] = tested on: human neonatal dermal fibroblast; details: for percentage of the viable cell: human, 24 h; for fluorescent intensity of Alamar Blue / effect on cell damage, in words: UV-A 9 J/cm^2, FIG. 4; for fluorescent intensity of Alamar Blue: without irradiation 794, negative control 140; for effect on cell damage, in words: pre-irradiation addition
Experimental: as §1, §2
For determining the effect of adding methionine before ultraviolet irradiation (hereinafter, referred to as “pre-irradiation addition of methionine”), the culture medium was switched to a BSO medium added with 0.0001 to 100 (micro-molar) L-methionine (131-01603, Wako Pure Chemical Industries Ltd.) or D-methionine (2807, Peptide Institute Inc.) 24 hours before the irradiation. The ultraviolet irradiation after switching into a medium added with 0.1 μM (micro-molar) D-proline (165-14671, Wako Pure Chemical Industries Ltd.) was employed as a positive control, while the ultraviolet irradiation to the medium still being free of such an added amino acid was employed as a negative control.
as §3, §4, §5, §6

[3] = post-irradiation addition 0.1 μM, UV-A 7.5 J/cm^2, FIG. 6
[4] = pre-irradiation addition 0.1 μM
[5] = post-irradiation addition 0.1 μM

Compound	fluorescent intensity of Alamar Blue [1, 3]	percentage of the viable cell ([2]; 0.0001 μM) [%]	percentage of the viable cell ([2]; 0.01 μM) [%]	percentage of the viable cell ([2]; 10 μM) [%]	fluorescent intensity of Alamar Blue [2, 4]	fluorescent intensity of Alamar Blue ([2]; pre-irradiation addition 1 μM)	fluorescent intensity of Alamar Blue ([2]; pre-irradiation addition 10 μM)	effect on cell damage, in words [2]	percentage of the viable cell ([2]; 1 μM) [%]	percentage of the viable cell ([2]; 100 μM) [%]	percentage of the viable cell [1, 5] [%]	further results
N[C@H](CO)C(=O)O [D-serine]	735	74	92	93	402	371	491	statistically significant increase in the fluorescent intensity	–	–	–	fluorescent intensity of Alamar Blue ([1]; post-irradiation addition 0.01 μM, UV-A 7.5 J/cm^2, FIG. 6): 697; fluorescent intensity of Alamar Blue ([1]; post-irradiation addition 1 μM, UV-A 7.5 J/cm^2, FIG. 6): 742; fluorescent intensity of Alamar Blue ([1]; post-irradiation addition 10 μM, UV-A 7.5 J/cm^2, FIG. 6): 664; fluorescent intensity of Alamar Blue ([1]; post-irradiation addition 100 μM, UV-A 7.5 J/cm^2, FIG. 6): 663; effect on cell damage, in words ([1]; post-irradiation addition, UV-A 7.5 J/cm^2, FIG. 6): statistically significant increase in the fluorescent intensity; fluorescent intensity of Alamar Blue ([2]; pre-irradiation addition 0.01 μM): 445
N[C@@H](CO)C(=O)O [L-serine, reference compound]	–	–	–	–	265	227	270	almost no reduction in the cell damage	–	–	–	–
CSCC[C@H](N)C(=O)O [L-methionine]	–	–	72	73	–	–	–	–	45	62	–	percentage of the viable cell ([2]; 0.001 μM): 40%; percentage of the viable cell ([2]; 0.1 μM): 67%
CSCC[C@@H](N)C(=O)O [D-methionine]	–	50	102	114	–	–	–	–	97	76	84	percentage of the viable cell ([1]; post-irradiation addition 0.01 μM): 93%; percentage of the viable cell ([1]; post-irradiation addition 1 μM): 82%; percentage of the viable cell ([1]; post-irradiation addition 10 μM): 81%; percentage of the viable cell ([1]; post-irradiation addition 100 μM): about 87%
O=C(O)[C@H]1CCCN1 [D-proline, reference compound]	579	–	–	–	610	–	–	–	–	–	82	–
